Reference: patent publication US10150728B2, “Alkylene derivatives” (Shionogi & Co., Ltd., priority 2013, dated 2018)

Target: recombinant human ACC2 (Homo sapiens (Human), UniProt O00763)
Assay: Measurement of inhibitory activity on human ACC2 (MALDI-TOF MS, acetyl CoA to malonyl CoA conversion)
Format: biochemical
Details: Table 154
Summary of the method: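 His-tagged human ACC2 (residues 27–2458) from baculovirus-infected Sf-9 cells was preincubated 1 h in pH 7.4 HEPES-KOH buffer with MgCl2, 6-10 mM potassium citrate, glutathione and BSA. Substrate solution held 1 mM ATP, 0.8 mM acetyl CoA and 25-50 mM bicarbonate. After 1–3 h at room temperature, malonyl CoA/(malonyl+acetyl CoA) was read by negative-mode MALDI-TOF MS; citrate, bicarbonate and time varied by enzyme lot.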

recombinant human ACC2, sequence (O00763 27-2458): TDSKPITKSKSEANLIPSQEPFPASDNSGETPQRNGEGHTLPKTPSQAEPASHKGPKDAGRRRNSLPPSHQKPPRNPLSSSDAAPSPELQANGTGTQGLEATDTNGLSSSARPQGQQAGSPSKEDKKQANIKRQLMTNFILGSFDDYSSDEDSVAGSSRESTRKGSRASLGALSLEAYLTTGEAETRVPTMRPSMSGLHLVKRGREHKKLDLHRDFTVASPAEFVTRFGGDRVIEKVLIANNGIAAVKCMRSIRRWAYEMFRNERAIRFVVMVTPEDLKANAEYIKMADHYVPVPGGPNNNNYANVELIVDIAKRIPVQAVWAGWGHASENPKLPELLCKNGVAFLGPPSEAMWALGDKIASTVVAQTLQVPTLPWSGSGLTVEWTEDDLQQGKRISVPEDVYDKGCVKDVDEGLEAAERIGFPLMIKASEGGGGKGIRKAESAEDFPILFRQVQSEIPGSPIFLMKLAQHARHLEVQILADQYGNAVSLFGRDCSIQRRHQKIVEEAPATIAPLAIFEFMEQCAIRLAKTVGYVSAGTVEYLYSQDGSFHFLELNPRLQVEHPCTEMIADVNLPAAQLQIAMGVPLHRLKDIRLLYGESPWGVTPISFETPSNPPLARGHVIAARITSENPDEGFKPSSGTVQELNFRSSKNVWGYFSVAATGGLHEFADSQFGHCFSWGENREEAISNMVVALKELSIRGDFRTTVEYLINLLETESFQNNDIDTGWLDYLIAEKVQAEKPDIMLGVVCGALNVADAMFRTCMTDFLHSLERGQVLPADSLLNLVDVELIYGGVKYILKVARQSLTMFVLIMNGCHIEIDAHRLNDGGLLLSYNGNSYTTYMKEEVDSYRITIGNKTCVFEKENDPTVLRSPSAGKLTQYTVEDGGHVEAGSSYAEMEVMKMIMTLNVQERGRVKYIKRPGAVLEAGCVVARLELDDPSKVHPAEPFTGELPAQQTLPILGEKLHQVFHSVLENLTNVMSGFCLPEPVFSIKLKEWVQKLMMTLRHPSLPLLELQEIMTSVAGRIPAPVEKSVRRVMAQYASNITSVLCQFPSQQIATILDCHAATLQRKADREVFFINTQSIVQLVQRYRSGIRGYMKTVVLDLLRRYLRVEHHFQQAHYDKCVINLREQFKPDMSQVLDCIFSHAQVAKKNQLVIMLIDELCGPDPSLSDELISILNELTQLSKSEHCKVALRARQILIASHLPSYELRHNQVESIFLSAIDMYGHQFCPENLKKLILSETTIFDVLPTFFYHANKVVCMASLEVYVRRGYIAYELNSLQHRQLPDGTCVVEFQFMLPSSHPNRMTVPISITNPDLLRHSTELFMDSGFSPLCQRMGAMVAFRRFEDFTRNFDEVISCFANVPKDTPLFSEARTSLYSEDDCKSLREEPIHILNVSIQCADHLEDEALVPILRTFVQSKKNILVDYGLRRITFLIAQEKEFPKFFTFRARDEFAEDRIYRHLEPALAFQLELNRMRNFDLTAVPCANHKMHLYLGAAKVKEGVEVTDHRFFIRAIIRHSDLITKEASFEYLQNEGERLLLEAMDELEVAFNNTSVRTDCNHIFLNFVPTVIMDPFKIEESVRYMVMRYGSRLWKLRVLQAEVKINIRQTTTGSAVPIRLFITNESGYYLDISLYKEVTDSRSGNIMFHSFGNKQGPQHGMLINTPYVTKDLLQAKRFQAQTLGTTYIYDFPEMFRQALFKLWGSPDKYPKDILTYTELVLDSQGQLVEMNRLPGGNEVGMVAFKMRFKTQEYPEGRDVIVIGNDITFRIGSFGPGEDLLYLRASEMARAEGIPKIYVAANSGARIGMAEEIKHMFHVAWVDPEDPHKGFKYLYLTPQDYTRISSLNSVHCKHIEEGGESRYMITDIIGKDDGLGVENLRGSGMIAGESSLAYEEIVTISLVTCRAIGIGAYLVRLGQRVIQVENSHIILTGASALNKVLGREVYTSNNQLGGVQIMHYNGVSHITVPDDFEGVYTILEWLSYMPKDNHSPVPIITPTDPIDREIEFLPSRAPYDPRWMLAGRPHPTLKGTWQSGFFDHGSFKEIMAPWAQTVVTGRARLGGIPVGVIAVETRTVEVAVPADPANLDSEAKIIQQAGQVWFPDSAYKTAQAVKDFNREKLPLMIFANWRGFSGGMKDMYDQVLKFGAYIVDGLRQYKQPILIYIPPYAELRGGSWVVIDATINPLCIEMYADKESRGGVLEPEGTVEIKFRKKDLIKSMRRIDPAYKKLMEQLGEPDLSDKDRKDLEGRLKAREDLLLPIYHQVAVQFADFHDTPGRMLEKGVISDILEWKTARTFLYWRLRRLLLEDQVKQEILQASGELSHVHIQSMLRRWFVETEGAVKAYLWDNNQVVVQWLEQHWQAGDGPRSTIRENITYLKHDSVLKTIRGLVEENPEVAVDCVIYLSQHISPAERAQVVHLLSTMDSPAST

IC50 | Structure (SMILES)
42 nM | CCOc1nc2ccc(OC[C@H]3C[C@@H](OC[C@H](C)NC(C)=O)C3)c(F)c2s1 [Compound I-086]
20 nM | CC(=O)N[C@@H](C)COc1cnc(Oc2ccc3nc(C(C)C)sc3c2F)cn1 [Compound I-026]
400 nM | CCC(C)(C)c1ccc(Oc2ccc(OC[C@H](C)NC(C)=O)nc2)c(Cl)c1 [Compound I-016]
134 nM | CC(=O)N[C@@H](C)[C@@H](C)Oc1cnc(Oc2ccc3nc(C(C)C)sc3c2F)cn1 [Compound I-049]
85 nM | CCOc1nc2ccc(O[C@H]3C[C@H](OC[C@H](C)NC(C)=O)C3)c(F)c2s1 [Compound I-074]
348 nM | CCCc1ccc(Oc2ccc(OC[C@H](C)NC(N)=O)cc2)c(Cl)c1 [Compound I-006]
3800 nM | CC(=O)N[C@@H](C)COc1cnc(Oc2ccc3c(c2Cl)OCCN(C(C)C)C3=O)cn1 [Compound I-082]
16 nM | CCOc1nc2ccc(Oc3cnc(OC[C@H](C)NC(C)=O)cn3)c(Cl)c2s1 [Compound I-039]
72 nM | CC(=O)N[C@@H](C)COc1cnc(Oc2ccc3nc(C(C)C)sc3c2Cl)cn1 [Compound I-038]
15 nM | CC(=O)N[C@@H](C)COc1cnc(Oc2ccc3nc(C(C)(F)F)sc3c2F)cn1 [Compound I-036]
65 nM | CCOc1nc2ccc(OC[C@H]3C[C@@H](OC[C@H](C)NC(C)=O)C3)c(Cl)c2s1 [Compound I-087]

Same assay, conditions: Tables 155-159

Structure (SMILES) | IC50
CC(=O)N[C@@H](C)CO[C@H]1CC[C@H](Oc2ncc3nc(OCC4(C#N)CC4)sc3c2F)CC1 [Compound I-275] | 156 nM
CC(=O)N[C@@H](C)CO[C@H]1C[C@H](COc2nccc(OCC3COC3)c2Cl)C1 [Compound I-374] | 637 nM
CC(=O)N[C@@H](C)CO[C@H]1C[C@H](COc2ncnc(OCc3ccc(Cl)nn3)c2Cl)C1 [Compound I-361] | 570 nM
CC(=O)N[C@@H](C)CO[C@H]1C[C@H](COc2nccc(N(C)Cc3ccccc3)c2Cl)C1 [Compound I-413] | 84 nM
C[C@@H](CO[C@H]1CC[C@H](Oc2ncc3nc(OC4CC4)sc3c2F)CC1)NC(N)=O [Compound I-285] | 38 nM
CC(=O)N[C@@H](C)CO[C@H]1C[C@H](COc2nsc3ccccc23)C1 [Compound I-424] | 122 nM
CC(=O)N[C@@H](C)CO[C@H]1CC[C@H](Oc2cc3sc(O[C@H]4C[C@@H](C#N)C4)nc3cn2)CC1 [Compound I-271] | 83 nM
CC(=O)N[C@@H](C)CO[C@H]1CC[C@H](Oc2cc3sc(OCC(F)(F)F)nc3cn2)CC1 [Compound I-184] | 54 nM
CC(=O)N[C@@H](C)CO[C@H]1C[C@H](COc2ccc3nc(N4CCCC4)sc3n2)C1 [Compound I-257] | 14 nM
CCOc1nc2ccc(OC[C@]3(F)C[C@H](OC[C@H](C)NC(C)=O)C3)nc2s1 [Compound I-225] | 48 nM
CC(=O)N[C@@H](C)CO[C@H]1CC[C@H](Oc2ccc3nc(OC(C)CF)sc3c2Cl)CC1 (stereo partly shown) [Compound I-112] | 31 nM
CC(=O)N[C@@H](C)CO[C@H]1CC[C@H](Oc2cc3sc(OC[C@@H](C)F)nc3cn2)CC1 [Compound I-262] | 53 nM
CC(=O)N[C@@H](C)CO[C@H]1C[C@H](COc2nccc(N3CCCC3)c2C)C1 [Compound I-378] | 144 nM
CC(=O)N[C@@H](C)CO[C@H]1C[C@H](COc2ncnc(Oc3nsc4ccccc34)c2Cl)C1 [Compound I-399] | 40 nM
C[C@@H](CO[C@H]1C[C@H](COc2ccc3nc(OCC(F)F)sc3n2)C1)NC(=O)O [Compound I-206] | 79 nM
CC(=O)N[C@@H](C)CO[C@H]1C[C@H](COc2ncnc(COc3ccccc3)c2Cl)C1 [Compound I-429] | 26 nM
CC(=O)N[C@@H](C)CO[C@H]1C[C@H](COc2ccc3nc(O[C@@H]4CO[C@@H]5CCO[C@@H]54)sc3n2)C1 [Compound I-283] | 984 nM
CC(=O)N[C@@H](C)CO[C@H]1C[C@H](COc2ncnc3c2ccn3C(C)C2CC2)C1 (stereo partly shown) [Compound I-362] | 130 nM
CC(=O)N[C@@H](C)CO[C@H]1C[C@H](COc2nccc3ccccc23)C1 [Compound I-318] | 49 nM
CC(=O)N[C@@H](C)CO[C@H]1C[C@H](COc2ncnc(OCc3ccccc3)c2C)C1 [Compound I-415] | 18 nM
CC(=O)N[C@@H](C)CO[C@H]1C[C@H](COc2nccc(N3CCCCC3)c2Cl)C1 [Compound I-324] | 51 nM
CC(=O)N[C@@H](C)CO[C@H]1C[C@H](COc2nc3sc(N4CCC4)nc3cc2F)C1 [Compound I-266] | 36 nM
CC(=O)N[C@@H](C)CO[C@H]1C[C@H](COc2ncnc(OCc3ccc(C(F)(F)F)cc3)c2Cl)C1 [Compound I-349] | 39 nM
CC(=O)N[C@@H](C)CO[C@H]1C[C@H](COc2ncnc(OCc3cccc(F)c3)c2Cl)C1 [Compound I-389] | 8 nM
CC(=O)N[C@@H](C)CO[C@H]1C[C@H](COc2ccc3nc(C4(F)CC4)sc3c2F)C1 [Compound I-138] | 91 nM
CC(=O)N[C@@H](C)CO[C@H]1C[C@H](COc2ncnc3c2c(C)cn3CC2CC2)C1 [Compound I-426] | 57 nM
CC(=O)N[C@@H](C)CO[C@H]1C[C@H](COc2ccc3nc(OC4CCC4)sc3c2F)C1 [Compound I-155] | 25 nM
CC(=O)N[C@@H](C)CO[C@H]1C[C@H](COc2ncnc(OCc3cc(F)ccn3)c2Cl)C1 [Compound I-360] | 17 nM
CC(=O)N[C@@H](C)CO[C@H]1C[C@H](COc2ncnc(N(C)Cc3ccccc3)c2Cl)C1 [Compound I-402] | 83 nM

Continued, values first:

IC50 | Structure (SMILES)
30 nM | CC(=O)N[C@@H](C)CO[C@H]1CC[C@H](Oc2nc3c(C#N)c(F)c(OCC(F)F)c(F)c3n2C)CO1 [Compound I-703]
41 nM | CC(=O)N[C@@H](C)CO[C@H]1CC[C@H](Oc2ccc3nc(CCC(F)(F)F)n(C)c3n2)CC1 [Compound I-515]
13 nM | CCOc1ncc2nc(O[C@H]3CC[C@H](OC[C@H](C)NC(C)=O)CC3)n(C)c2c1F [Compound I-694]
116 nM | CC(=O)N[C@@H](C)CO[C@H]1C[C@H](COc2ccc3nc(OC4CC(F)(F)C4)n(C)c3n2)C1 [Compound I-478]
383 nM | CC(=O)N[C@@H](C)CO[C@H]1CC[C@H](Oc2nc3ccc(Oc4ccncc4)cc3n2C)CC1 [Compound I-594]
620 nM | CC(=O)N[C@@H](CO)CO[C@H]1CC[C@H](Oc2nc3cnc(OCC(F)F)c(Cl)c3n2C)CC1 [Compound I-669]
9 nM | CC(=O)N[C@@H](C)CO[C@H]1CC[C@H](Oc2nc3cnc(OC[C@@H](C)F)c(Cl)c3n2C)CC1 [Compound I-724]
8 nM | CC(=O)N[C@@H](C)CO[C@H]1CC[C@H](Oc2ncc(-c3ncc(F)cn3)cc2Cl)CC1 [Compound I-522]
5 nM | CC(=O)N[C@@H](C)CO[C@H]1CC[C@H](Oc2nc3cnc(OCC4CC4)c(Cl)c3n2C)CC1 [Compound I-662]
77 nM | CC(=O)N[C@@H](C)CO[C@H]1CC[C@H](Oc2nc3ccc(C(C)C)cc3n2C)CC1 [Compound I-585]
4 nM | CC(=O)N[C@@H](C)CC[C@H]1CC[C@H](Oc2ncc(-c3ncc(Cl)cn3)cc2F)CC1 [Compound I-544]
19 nM | CC(=O)N[C@@H](C)CO[C@H]1C[C@H](COc2ncnc(OCc3cc(C(F)(F)F)ccn3)c2Cl)C1 [Compound I-437]
3 nM | C[C@@H](CO[C@H]1CC[C@H](Oc2nc3c(F)cc(OC4CC4)c(F)c3n2C)CC1)NC(=O)C(F)F [Compound I-683]
76 nM | CC(=O)N[C@@H](C)CO[C@H]1C[C@H](COc2nc(C)nc3c2ccn3CC2CC2)C1 [Compound I-447]
385 nM | CCOc1ccc2c(c1)nc(O[C@H]1CC[C@H](OC[C@H](C)NC(C)=O)CC1)n2C [Compound I-564]
4 nM | CC(=O)N[C@@H](C)CO[C@H]1C[C@H](COc2ncnc(OCc3ncc(Cl)s3)c2Cl)C1 [Compound I-439]
240 nM | CC(=O)N[C@@H](C)CO[C@H]1C[C@H](COc2ncnc(OCc3nnc(C(F)(F)F)s3)c2Cl)C1 [Compound I-443]
12 nM | CCCOc1nc2ccc(O[C@H]3CC[C@H](OC[C@H](C)NC(C)=O)CC3)nc2n1C [Compound I-505]
74 nM | CCOc1ccc2nc(O[C@H]3CC[C@H](OC[C@H](C)NC(C)=O)CC3)n(C)c2c1C [Compound I-606]
5 nM | C[C@@H](CC[C@H]1CC[C@H](Oc2nc3cnc(OC4CC4)c(Cl)c3n2C)CC1)NC(N)=O [Compound I-682]
87 nM | CC(=O)N[C@@H](C)CO[C@H]1C[C@H](COc2ccc3nc(OCCC(C)C)n(C)c3n2)C1 [Compound I-482]
653 nM | CC(=O)N[C@@H](C)CO[C@H]1C[C@H](COc2ncnc3c2ccn3Cc2cccnc2)C1 [Compound I-434]
11 nM | CC(=O)N[C@@H](C)CO[C@H]1C[C@H](COc2nccc(NC(=O)C3CCCCC3)c2Cl)C1 [Compound I-433]
24 nM | CC(=O)N[C@@H](C)CO[C@H]1CC[C@H](Oc2ccc3nc(OCC4CC4(F)F)n(C)c3n2)CC1 (stereo partly shown) [Compound I-503]
37 nM | CC(=O)N[C@@H](C)CO[C@H]1CC[C@H](Oc2nc3cc(Br)ccc3s2)CC1 [Compound I-549]
584 nM | CC(=O)N[C@@H](C)CO[C@H]1CC[C@H](Oc2nc3ccc(Oc4ccccn4)cc3n2C)CC1 [Compound I-590]
4 nM | CC(=O)N[C@@H](C)CO[C@H]1C[C@@H](COc2ncnc(OCc3ccccn3)c2Cl)C1 [Compound I-436]
298 nM | CC(=O)N[C@@H](C)CO[C@H]1C[C@H](COc2ccc3nc(Oc4ccccc4)n(C)c3n2)C1 [Compound I-481]
46 nM | CC(=O)N[C@@H](C)CO[C@H]1CC[C@H](Oc2ccc3nc(OC(C)C)n(C)c3n2)CC1 [Compound I-494]
6 nM | CCOc1ccc2nc(O[C@H]3CC[C@H](OC[C@H](C)NC(C)=O)CC3)n(C)c2c1Cl [Compound I-604]
